Data as given in US9919066B2, “Electroporation of tissue products” (LifeCell Corporation, priority 2013, dated 2018).

Tests used:
[1] = H&E histological examination of porcine dermis after electroporation; conditions: 0.2% PAA
Experimental: FIG. 1A-C show hematoxylin and eosin (H&E) staining of 1 cm by 1 cm samples of porcine dermis after exposure for 15 milliseconds to one electrical pulse of 0V (FIG. 1A), 40V (FIG. 1B), or 80V (FIG. 1C), according to certain embodiments of the present disclosure.
(§1) To determine the impact of pulse voltage on bacteria present on tissue samples, 1 cm by 1 cm pieces of porcine dermis (1 mm thickness) were electroporated in 2 ml of 0.2% peracetic acid (PAA) at three different pulse voltages: 0V, 40V and 80V. The 0V samples were used as a control condition. Electroporation plates (1 cm by 2 cm conducting metal plates) were set 2 mm apart and a 1 mm thick piece of tissue was placed between them. Electrical pulses were delivered for 10 ms. All conditions were tested in triplicates.
The tissue samples exposed to 40V and 80V pulse voltages had 0 bacteria. […] Porcine dermis was also stained using hematoxylin and eosin (H&E).

[2] = system: bioburden (bacteria) on porcine dermis; test: Effect of pulse length on bioburden of porcine dermis electroporated in PAA; type: cell-based; conditions: 0.2% PAA
Experimental: […] 0 ms pulses were used as a control condition. All conditions were tested in triplicates.
Electroporation plates (1 cm by 2 cm conducting metal plates) were set 2 mm apart and a 1 mm thick piece of tissue was placed between them. Pulse voltage was set at 80V. Following electroporation each piece of tissue was removed and rinsed in a PAA neutralizing wash for 5 minutes and then placed in 10 ml of PBS.
Stomaching was used to extract the bacteria from each piece of tissue and bacteria counts were performed following incubation of culture plates for 2 days at 37° C. […] Minimal bacterial colony forming units (CFU) were detected on tissue samples following 15 ms pulse.

[3] = system: bacteria present on tissue samples; test: Effect of pulse voltage on bacteria counts of porcine dermis electroporated in PAA; type: cell-based; conditions: 0.2% PAA; for bacteria count: 10 ms, triplicates
Experimental: as §1
Following electroporation each piece of tissue was removed and rinsed in a PAA neutralizing wash for 5 minutes and then placed in 10 ml of phosphate buffered saline (PBS). The purpose of the neutralizing wash was to prevent further bacterial kill from residual PAA following electroporation that could confound the results.
Stomaching was used to extract the bacteria from each piece of tissue and bacteria counts were performed following incubation of culture plates for 2 days at 37° C. Stomaching is a mechanical extraction method used to remove microorganisms from samples of foods, fabrics, swabs, or other soft materials such as human or animal tissue. […] The resulting compression and shearing forces elute deep-seated bacteria. Once the agitation process is completed, samples of the eluent are taken for microbial enumeration and subsequent identification.

CC(=O)OO [PAA, peracetic acid]
changes in the collagen structure (H&E histology) ([1]; exposure to 40 volts): no detectable change | changes in the collagen structure (H&E histology) ([1]; exposure to 80 volts): potential changes in the collagen structure | Viable Cell Count ([2]; 80V, pulse length 1 ms, 100 pulses): 430 CFU | Viable Cell Count ([2]; 80V, pulse length 5 ms, 1 pulse): 300 CFU | Viable Cell Count ([2]; 80V, pulse length 10 ms, 1 pulse): 140 CFU | Viable Cell Count ([2]; pulse length 0 ms, no pulses (control condition)): 26000 CFU | bacterial colonies ([3]; 0V (control condition, no pulse)): too numerous to count | bacteria count ([3]; 40V pulse): 0 | bacteria count ([3]; 80V pulse): 0
